Test results: patent publication US12077503B2, “Substituted cyclic amides and their use as herbicides” (FMC CORPORATION, priority 2015, dated 2024)

Assays:
Format in all cases: in vivo
[1] = test system: barnyardgrass (Echinochloa crus-galli); assay: Test G Pre-Emergence Protocol; conditions: Echinochloa crus-galli, pre-emergence, 312 h, evaluated after 13 days; for pest or weed control at 15.625 g/ha: 15.625 g ai/ha; for pest or weed control at 15.625 g/ha / pest or weed control at 250 g/ha: read-out: Barnyardgrass damage rating (100=total damage to plant; 0=no damage to plant); for pest or weed control at 62.5 g/ha: 62.5 g ai/ha, 100=total damage to plant, 0=no damage to plant, read-out: Barnyardgrass damage rating; for pest or weed control at 250 g/ha: 250 g ai/ha
Procedure, shortened: (§1)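 Pre-emergence spray, 15.625/62.5/250 g/ha, vehicle acetone:water 50:50 + 0.5% Tween 20, applied 1 d after sowing. Glasshouse 24/16° C, 14 h light, 65% RH, watered twice daily. Visual damage rating at 13 d, 0–100 scale.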

corn (Zea mays) [2] = assay: Test G Pre-Emergence Protocol; conditions: Zea mays, pre-emergence, 312 h, evaluated after 13 days; for plant injury at 15.625 g/ha: 15.625 g ai/ha; for plant injury at 15.625 g/ha / plant injury at 250 g/ha: read-out: Corn damage rating (100=total damage to plant; 0=no damage to plant); for plant injury at 62.5 g/ha: 62.5 g ai/ha, 100=total damage to plant, 0=no damage to plant, read-out: Corn damage rating; for plant injury at 250 g/ha: 250 g ai/ha
Procedure, shortened: as §1

[3] = test system: giant foxtail (Setaria faberi); assay: Test G Pre-Emergence Protocol; conditions: Setaria faberi, pre-emergence, 312 h, evaluated after 13 days; for pest or weed control at 15.625 g/ha: 15.625 g ai/ha; for pest or weed control at 15.625 g/ha / pest or weed control at 250 g/ha: read-out: Foxtail, Giant damage rating (100=total damage to plant; 0=no damage to plant); for pest or weed control at 62.5 g/ha: 62.5 g ai/ha, 100=total damage to plant, 0=no damage to plant, read-out: Foxtail, Giant damage rating; for pest or weed control at 250 g/ha: 250 g ai/ha
Procedure, shortened: as §1

[4] = test system: ivy-leaved morning glory (Ipomoea hederacea); assay: Test G Pre-Emergence Protocol; conditions: Ipomoea, pre-emergence, 312 h, evaluated after 13 days; for pest or weed control at 15.625 g/ha: 15.625 g ai/ha; for pest or weed control at 15.625 g/ha / pest or weed control at 250 g/ha: read-out: Morningglory, Ivy-leaved damage rating (100=total damage to plant; 0=no damage to plant); for pest or weed control at 62.5 g/ha: 62.5 g ai/ha, 100=total damage to plant, 0=no damage to plant, read-out: Morningglory, Ivy-leaved damage rating; for pest or weed control at 250 g/ha: 250 g ai/ha
Procedure, shortened: as §1

[5] = test system: redroot pigweed (Amaranthus retroflexus); assay: Test G Pre-Emergence Protocol; conditions: Amaranthus retroflexus, pre-emergence, 312 h, evaluated after 13 days; for pest or weed control at 15.625 g/ha: 15.625 g ai/ha; for pest or weed control at 15.625 g/ha / pest or weed control at 250 g/ha: read-out: Pigweed, Redroot damage rating (100=total damage to plant; 0=no damage to plant); for pest or weed control at 62.5 g/ha: 62.5 g ai/ha, 100=total damage to plant, 0=no damage to plant, read-out: Pigweed, Redroot damage rating; for pest or weed control at 250 g/ha: 250 g ai/ha
Procedure, shortened: as §1

[6] = test system: velvetleaf (Abutilon theophrasti); assay: Test G Pre-Emergence Protocol; conditions: Abutilon theophrasti, pre-emergence, 312 h, evaluated after 13 days; for pest or weed control at 15.625 g/ha: 15.625 g ai/ha; for pest or weed control at 15.625 g/ha / pest or weed control at 250 g/ha: read-out: Velvetleaf damage rating (100=total damage to plant; 0=no damage to plant); for pest or weed control at 62.5 g/ha: 62.5 g ai/ha, 100=total damage to plant, 0=no damage to plant, read-out: Velvetleaf damage rating; for pest or weed control at 250 g/ha: 250 g ai/ha
Procedure, shortened: as §1

[7] = test system: barnyardgrass (Echinochloa crus-galli); assay: Test G Post-Emergence Protocol; conditions: Echinochloa crus-galli, post-emergence, 312 h, read-out: Barnyardgrass damage rating; for pest or weed control at 15.625 g/ha: 15.625 g ai/ha, evaluated after 13 days (100=total damage to plant; 0=no damage to plant); for pest or weed control at 62.5 g/ha: 62.5 g ai/ha; for pest or weed control at 62.5 g/ha / pest or weed control at 250 g/ha: evaluated after 13 days, 100=total damage to plant, 0=no damage to plant; for pest or weed control at 250 g/ha: 250 g ai/ha
Procedure, shortened: (§2)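 Post-emergence herbicidal damage, scored visually 0–100 at 13 days. Application at 15.625, 62.5 or 250 g/ha onto 8-day-old plants grown under glasshouse control.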

corn (Zea mays) [8] = assay: Test G Post-Emergence Protocol; conditions: Zea mays, post-emergence, 312 h, read-out: Corn damage rating; for plant injury at 15.625 g/ha: 15.625 g ai/ha, evaluated after 13 days (100=total damage to plant; 0=no damage to plant); for plant injury at 62.5 g/ha: 62.5 g ai/ha; for plant injury at 62.5 g/ha / plant injury at 250 g/ha: evaluated after 13 days, 100=total damage to plant, 0=no damage to plant; for plant injury at 250 g/ha: 250 g ai/ha
Procedure, shortened: as §2

[9] = test system: giant foxtail (Setaria faberi); assay: Test G Post-Emergence Protocol; conditions: Setaria faberi, post-emergence, 312 h, read-out: Foxtail, Giant damage rating; for pest or weed control at 15.625 g/ha: 15.625 g ai/ha, evaluated after 13 days (100=total damage to plant; 0=no damage to plant); for pest or weed control at 62.5 g/ha: 62.5 g ai/ha; for pest or weed control at 62.5 g/ha / pest or weed control at 250 g/ha: evaluated after 13 days, 100=total damage to plant, 0=no damage to plant; for pest or weed control at 250 g/ha: 250 g ai/ha
Procedure, shortened: as §2

[10] = test system: ivy-leaved morning glory (Ipomoea hederacea); assay: Test G Post-Emergence Protocol; conditions: Ipomoea, post-emergence, 312 h, read-out: Morningglory, Ivy-leaved damage rating; for pest or weed control at 15.625 g/ha: 15.625 g ai/ha, evaluated after 13 days (100=total damage to plant; 0=no damage to plant); for pest or weed control at 62.5 g/ha: 62.5 g ai/ha; for pest or weed control at 62.5 g/ha / pest or weed control at 250 g/ha: evaluated after 13 days, 100=total damage to plant, 0=no damage to plant; for pest or weed control at 250 g/ha: 250 g ai/ha
Procedure, shortened: as §2

[11] = test system: redroot pigweed (Amaranthus retroflexus); assay: Test G Post-Emergence Protocol; conditions: Amaranthus retroflexus, post-emergence, 312 h, read-out: Pigweed, Redroot damage rating; for pest or weed control at 15.625 g/ha: 15.625 g ai/ha, evaluated after 13 days (100=total damage to plant; 0=no damage to plant); for pest or weed control at 62.5 g/ha: 62.5 g ai/ha; for pest or weed control at 62.5 g/ha / pest or weed control at 250 g/ha: evaluated after 13 days, 100=total damage to plant, 0=no damage to plant; for pest or weed control at 250 g/ha: 250 g ai/ha
Procedure, shortened: as §2

[12] = test system: velvetleaf (Abutilon theophrasti); assay: Test G Post-Emergence Protocol; conditions: Abutilon theophrasti, post-emergence, 312 h, read-out: Velvetleaf damage rating; for pest or weed control at 15.625 g/ha: 15.625 g ai/ha, evaluated after 13 days (100=total damage to plant; 0=no damage to plant); for pest or weed control at 62.5 g/ha: 62.5 g ai/ha; for pest or weed control at 62.5 g/ha / pest or weed control at 250 g/ha: evaluated after 13 days, 100=total damage to plant, 0=no damage to plant; for pest or weed control at 250 g/ha: 250 g ai/ha
Procedure, shortened: as §2

Row | SMILES | pest or weed control at 15.625 g/ha [1] | pest or weed control at 62.5 g/ha [1] | pest or weed control at 250 g/ha [1] | plant injury at 15.625 g/ha (corn (Zea mays) [2]) | plant injury at 62.5 g/ha (corn (Zea mays) [2]) | plant injury at 250 g/ha (corn (Zea mays) [2]) | pest or weed control at 15.625 g/ha [3] | pest or weed control at 62.5 g/ha [3] | pest or weed control at 250 g/ha [3] | pest or weed control at 15.625 g/ha [4] | pest or weed control at 62.5 g/ha [4] | pest or weed control at 250 g/ha [4] | pest or weed control at 15.625 g/ha [5] | pest or weed control at 62.5 g/ha [5] | pest or weed control at 250 g/ha [5] | pest or weed control at 15.625 g/ha [6] | pest or weed control at 62.5 g/ha [6] | pest or weed control at 250 g/ha [6] | pest or weed control at 15.625 g/ha [7] | pest or weed control at 62.5 g/ha [7] | also measured
1 | Cc1ccc(C2CN(C)C(=O)C2C(=O)Nc2cccc(F)c2F)cc1[N+](=O)[O-] (stereo not drawn) [Compound 1722] | 0% | 60% | 80% | 10% | 30% | 70% | 60% | 70% | 90% | 0% | 0% | 0% | 0% | 10% | 30% | 0% | 0% | 20% | 10% | 60% | pest or weed control at 250 g/ha [7]: 80%; plant injury at 15.625 g/ha (corn (Zea mays) [8]): 10%; plant injury at 62.5 g/ha (corn (Zea mays) [8]): 0%; plant injury at 250 g/ha (corn (Zea mays) [8]): 80%; pest or weed control at 15.625 g/ha [9]: 60%; pest or weed control at 62.5 g/ha [9]: 70%; pest or weed control at 250 g/ha [9]: 80%; pest or weed control at 15.625 g/ha [10]: 20%; pest or weed control at 62.5 g/ha [10]: 30%; pest or weed control at 250 g/ha [10]: 70%; pest or weed control at 15.625 g/ha [11]: 0%; pest or weed control at 62.5 g/ha [11]: 10%; pest or weed control at 250 g/ha [11]: 30%; pest or weed control at 15.625 g/ha [12]: 0%; pest or weed control at 62.5 g/ha [12]: 10%; pest or weed control at 250 g/ha [12]: 10%
2 | COc1cc(OC(F)(F)F)cc(C2CN(C)C(=O)C2C(=O)Nc2cccc(F)c2F)c1 (stereo not drawn) [Compound 1697] | 40% | 70% | 80% | 0% | 40% | 50% | 70% | 80% | 80% | 0% | 0% | 0% | 0% | 0% | 20% | 0% | 0% | 20% | 60% | 70% | pest or weed control at 250 g/ha [7]: 90%; plant injury at 15.625 g/ha (corn (Zea mays) [8]): 10%; plant injury at 62.5 g/ha (corn (Zea mays) [8]): 80%; plant injury at 250 g/ha (corn (Zea mays) [8]): 80%; pest or weed control at 15.625 g/ha [9]: 80%; pest or weed control at 62.5 g/ha [9]: 80%; pest or weed control at 250 g/ha [9]: 80%; pest or weed control at 15.625 g/ha [10]: 30%; pest or weed control at 62.5 g/ha [10]: 60%; pest or weed control at 250 g/ha [10]: 60%; pest or weed control at 15.625 g/ha [11]: 20%; pest or weed control at 62.5 g/ha [11]: 60%; pest or weed control at 250 g/ha [11]: 70%; pest or weed control at 15.625 g/ha [12]: 0%; pest or weed control at 62.5 g/ha [12]: 30%; pest or weed control at 250 g/ha [12]: 30%
3 | CN1C[C@@H](c2ccc(C(F)(F)F)cc2)[C@H](C(=O)Nc2ccc(F)nc2F)C1=O (racemic) [Compound 1650] | 10% | 70% | 90% | 0% | 0% | 80% | 40% | 90% | 90% | 0% | 0% | 0% | 0% | 70% | 80% | 0% | 0% | 50% | 40% | 80% | pest or weed control at 250 g/ha [7]: 80%; plant injury at 15.625 g/ha (corn (Zea mays) [8]): 10%; plant injury at 62.5 g/ha (corn (Zea mays) [8]): 50%; plant injury at 250 g/ha (corn (Zea mays) [8]): 70%; pest or weed control at 15.625 g/ha [9]: 70%; pest or weed control at 62.5 g/ha [9]: 80%; pest or weed control at 250 g/ha [9]: 80%; pest or weed control at 15.625 g/ha [10]: 20%; pest or weed control at 62.5 g/ha [10]: 10%; pest or weed control at 250 g/ha [10]: 20%; pest or weed control at 15.625 g/ha [11]: 10%; pest or weed control at 62.5 g/ha [11]: 70%; pest or weed control at 250 g/ha [11]: 80%; pest or weed control at 15.625 g/ha [12]: 0%; pest or weed control at 62.5 g/ha [12]: 20%; pest or weed control at 250 g/ha [12]: 40%
